# Measurements from patent US20230192706A1, “BICYCLIC AMINES AS CDK2 INHIBITORS” (Incyte Corporation, priority 2021, published 2023).
# Target: T1, CDK2/Cyclin E1 (Homo sapiens, UniProt P24941)
# T1 construct: full-length human CDK2 co-expressed as N-terminal GST-tagged protein; GST (N); purchased Carna 04-165; host or cells: baculovirus expression system
# Assay: CDK2/Cyclin E1 HTRF enzyme activity assay
# Type: biochemical
# Settings: 1 mM ATP; CDK2/Cyclin E1 0.25 nM; 60 minutes at room temperature
# Method: CDK2/Cyclin E1 enzyme activity assays utilize full-length human CDK2 co-expressed as N-terminal GST-tagged protein with FLAG-Cyclin E1 in a baculovirus expression system (Carna Product Number 04-165). Assays were conducted in white 384-well polystyrene plates in a final reaction volume of 8 µL. CDK2/Cyclin E1 (0.25 nM) was incubated with the compounds of the Examples (40 nL serially diluted in DMSO) in the presence of ATP (50 µM or 1 mM) and 50 nM ULight^Tm-labeled eIF4E-binding protein 1 (THR37/46) peptide (PerkinElmer) in assay buffer (containing 50 mM HEPES pH 7.5, 1 mM EGTA, 10 mM MgCl2, 2 mM DTT, 0.05 mg/mL BSA, and 0.01% Tween 20) for 60 minutes at room temperature. The reactions were stopped by the addition of EDTA and Europium-labeled anti-phospho-4E-BP1 antibody (PerkinElmer), for a final concentration of 15 mM and 1.5 nM, respectively. HTRF signals were read after 1 hour at room temperature on a PHERAstar FS plate reader (BMG Labtech). Data was analyzed with IDBS XLFit and GraphPad Prism 5.0 software using a three or four parameter dose response curve to determine IC50 for each compound.
row,IC50 [nM],Structure (SMILES)
1,< 10,"F[C@@H]1CCN(c2c(-c3cn[nH]c3)ccn3nc(N[C@H]4CCOC[C@H]4F)nc23)C1 [Example 3, 8—((R)—3-Fluoropyrrolidin-1-yl)-N((3S,4S)-3-fluorotetrahydro-2H-pyran-4-yl)-7-(1H-pyrazol-4-yl)-[1,2,4]triazolo[1,5-α]pyridin-2-amine]"
2,< 10,"CC(C)Oc1c(-c2cn[nH]c2)ncc2nc(N[C@H]3CCOC[C@H]3F)nn12 [Example 12, N-((3S,4S)-3-Fluorotetrahydro-2H-pyran-4-yl)-5-isopropoxy-6-(1H-pyrazol-4-yl)-[1,2,4]triazolo[1,5-α] pyrazin-2-amine]"
3,< 10,"Cc1cc(-c2c(-c3cn[nH]c3)ccn3nc(N[C@H]4CCOC[C@H]4F)nc23)c(F)cc1C#N [Example 2, 5-Fluoro-4-(2-(((3S,4S)-3-fluorotetrahydro-2H-pyran-4-yl)amino)-7-(1H-pyrazol-4-yl)-[1,2,4]triazolo[1,5-a]pyridin-8-yl)-2-methylbenzonitrile]"
4,< 10,"Cc1cc(-c2c(-c3cn[nH]c3)ccn3nc(NC4CCOCC4)nc23)ccc1C#N [Example 1, 4-(7-(1H-Pyrazol-4-yl)-2-((tetrahydro-2H-pyran-4-yl)aminoamino)-[1,2,4]triazolo[1,5-a]pyridin-8-yl)-2-methylbenzonitrile]"
5,< 10,"CC(C)Oc1c(-c2cn[nH]c2)ncn2nc(N[C@H]3CCOC[C@H]3F)nc12 [Example 7, N-((3S, 4S)-3-Fluorotetrahydro-2H-pyran-4-yl)-8-isopropoxy-7-(1H-pyrazol-4-yl)-[1,2,4]triazolo[1,5-c]pyrimidin-2-amine]"
6,< 10,"CC(C)Oc1c(-c2cn[nH]c2)ccn2nc(N[C@H]3CCOC[C@H]3F)nc12 [Example 5, N-((3S,4S)-3-Fluorotetrahydro-2H-pyran-4-yl)-8-isopropoxy-7-(1H-pyrazol-4-yl)-[1,2,4]triazolo[1,5-α]pyridin-2-amine]"
7,< 10,"C[C@H](Oc1c(-c2cn[nH]c2)ncc2nc(N[C@H]3CCOC[C@H]3F)nn12)C(F)(F)F [Example 8, N-((3S,4S)-3-Fluorotetrahydro-2H-pyran-4-yl)-6-(1H-pyrazol-4-yl)-5-(((5)-1,1,1-trifluoropropan-2-yl)oxy)-[1,2,4]triazolo[1,5-α]pyrazin-2-amine]"
8,< 10,"CC(C)Oc1c(-c2cn[nH]c2)ncn2nc(NC3CCOC(C)C3)nc12 (single isomer, unassigned) [Example 6, 8-Isopropoxy-N-(2-methyltetrahydro-2H-pyran-4-yl)-7-(1H-pyrazol-4-yl)-[1,2,4]triazolo[1,5-c]pyrimidin-2-amine]"
9,< 10,"F[C@@H]1COCC[C@@H]1Nc1nc2cnc(-c3cn[nH]c3)c(N3CCCCC3)n2n1 [Example 13, N-((3S,4S)-3-Fluorotetrahydro-2H-pyran-4-yl)-5-(piperidin-1-yl)-6-(1H-pyrazol-4-yl)-[1,2,4]triazolo[1,5-α]pyrazin-2-amine]"
10,< 10,"C[C@@H](Oc1c(-c2cn[nH]c2)ncc2nc(N[C@H]3CCOC[C@H]3F)nn12)C(F)(F)F [Example 9, N-((3S,4S)-3-Fluorotetrahydro-2H-pyran-4-yl)-6-(1H-pyrazol-4-yl)-5—(((R)—1,1,1-trifluoropropan-2-yl)oxy)-[1,2,4]triazolo[1,5-α]pyrazin-2-amine]"
11,< 10,"F[C@@H]1COCC[C@@H]1Nc1nc2c(N3CCCC(F)(F)C3)c(-c3cn[nH]c3)ccn2n1 [Example 4, 8-(3,3-Difluoropiperidin-1-yl)-N-((3S,4S)-3-fluorotetrahydro-2H-pyran-4-yl)-7-(1H-pyrazol-4-yl)-[1,2,4]triazolo[1,5-α]pyridin-2-amine]"

row,Structure (SMILES),IC50 [nM]
1,"FC(F)C1(Oc2c(-c3cn[nH]c3)ncc3nc(N[C@H]4CCOC[C@H]4F)nn23)CCC1 [Example 10, 5-(1-(Difluoromethyl)cyclobutoxy)-N-((3S,4S)-3-fluorotetrahydro-2H-pyran-4-yl)-6-(1H-pyrazol-4-yl)-[1,2,4]triazolo[1,5-α]pyrazin-2-amine]",< 10
2,"FC(F)C1(Oc2c(-c3cn[nH]c3)ncc3nc(NC4CCOCC4)nn23)CCC1 [Example 11, 5-(1-(Difluoromethyl)cyclobutoxy)-6-(1H-pyrazol-4-yl)-N-(tetrahydro-2H-pyran-4-yl)-[1,2,4] triazolo [1,5-α] pyrazin-2-amine]",< 10
